# From paper PMC6273176, “In Silico Mining for Antimalarial Structure-Activity Knowledge and Discovery of Novel Antimalarial Curcuminoids” (Molecules, 2016)
# Like-named read-outs stand apart in the source and are kept apart here.
# Legend:
# [1] = system: human fibroblast MRC-5 cell line; test: Cytotoxicity assay on MRC-5 fibroblasts (resazurin); assay type: cell-based
# Procedure: (§1) In vitro biological assays. Compounds were tested to establish a full dose-titration and determination of the IC50. […] The selectivity antiprotozoal potential on P. falciparum (3D7 strain) was assessed by simultaneous evaluation of cytotoxicity on a fibroblast (MRC-5) cell line.
# (§2) Cytotoxicity assay. […] Cell viability was assessed fluorometrically after 4 h of the addition of resazurin. Fluorescence was measured (excitation 550 nm, emission 590 nm), and the results were expressed as % reduction in cell viability compared to untreated control. Tamoxifen is used as the reference control.
# [2] = as above; assay type: cell-based, human; settings: human
# Procedure: as §1, §2
# P. falciparum 3D7 strain = test: Antiplasmodial activity, SYBR Green I assay on P. falciparum 3D7 cultures; assay type: cell-based, Plasmodium falciparum; settings: for IC50: read-out: Plasmodium falciparum 3D7 Strain IC50 ± SD
# Procedure: In vitro biological assays. Compounds were tested to establish a full dose-titration and determination of the IC50. […] Antiplasmodial activity. The P. falciparum 3D7 strain was maintained in O+ human erythrocytes in albumin RPMI-supplemented medium under continuous culture using the candle-jar method. The parasites were synchronized to the ring stage by repeated sorbitol treatment. A 2.5% (v/v) erythrocyte suspension with 1% parasitemia (number of parasites per 100 red blood cells) was incubated with the compounds to be tested, previously dissolved in DMSO. […] After 44 h of incubation at 37 °C, the plates were subjected to 3 freeze-thaw cycles to achieve complete hemolysis. […] The incorporation of SYBR Green I (Applied Biosystems) in parasite DNA was measured using the Master […]® (Eppendorf) according to the following program to increase the SYBR Green incorporation: 90 °C (1 min), decrease in temperature from 90 °C to 10 °C (during 5 min) with reading the fluorescence. Then, the IC50 was calculated by icestimator software.
# [3] = Plasmodium falciparum, 3D7, 44 h, 3D7 strain, ring-stage synchronized, 44 h incubation, SYBR Green I
# [4] = MRC-5 SV2 cells, 72 h, resazurin, read-out: Cytotoxicity MRC-5 CC50
# [5] = Plasmodium falciparum, 3D7, 44 h
Structure (SMILES),IC50 (P. falciparum 3D7 strain; [3]) [µM],SI CC50/IC50 [1],cytotoxicity classification from CC50 [1],CC50 at 72 h [2] [µM],also measured
O=C(/C=C/c1ccc(Cl)cc1)/C=C/c1ccc(Cl)cc1 [Compound A9],0.121 ± 0.0124,351.6,rather not cytotoxic,42.4,
O=C(/C=C/c1ccccc1)/C=C/c1ccccn1 [Compound A10],0.161 ± 0.0205,9.5,rather cytotoxic,1.53,
O=C1C[C@H](c2ccccn2)[S+]([O-])[C@@H](c2ccccn2)C1 [Compound B3],0.0401 ± 0.0073,199.5,,8,"cytotoxicity classification from CC50 ([1]; MRC-5 cells, class in words): moderately cytotoxic"
COc1ccc([C@H]2CC(=O)C[C@H](c3ccc(OC)cc3)S2(=O)=O)cc1 [Compound B10],> 0.5,<128,,,"CC50 at 72 h [2, 4]: > 64 µM"
Cc1ccc(/C=C/C(=O)/C=C/c2ccc(C)cc2)cc1 [Compound A17],> 0.5,<64.9,rather not cytotoxic,32.5,
O=C1C[C@H](c2ccccn2)S(=O)(=O)[C@@H](c2ccccn2)C1 [Compound B9],> 0.5,<15.8,,7.89,"cytotoxicity classification from CC50 ([1]; MRC-5 cells, class in words): moderately cytotoxic"
COc1ccc(/C=C/C(=O)/C=C/c2ccc(N)cc2)cc1 [Compound A15],> 0.5,,,,
O=C(/C=C/c1ccncc1)/C=C/c1ccncc1 [Compound A13],> 0.5,<2.3,rather cytotoxic,1.13,
"CC/C(=C(\c1ccccc1)c1ccc(OCCN(C)C)cc1)c1ccccc1 [tamoxifen, reference compound]",,,,,"CC50 at 72 h ([2]; MRC-5 SV2 fibroblast cells, MRC-5 SV2 cells, 72 h, resazurin, read-out: Cytotoxicity MRC-5 CC50): 9.12 µM"
O=C1C[C@@H](c2ccccn2)S[C@@H](c2ccccn2)C1 [Compound B6],> 0.5,<128,,,"CC50 at 72 h [2, 4]: > 64 µM"
O=C(/C=C/c1ccccc1)/C=C/c1ccncc1 [Compound A7],0.12 ± 0.0173,16.5,rather cytotoxic,1.99,
O=C1C[C@H](c2ccccn2)S(=O)(=O)[C@H](c2ccccn2)C1 [Compound B11],> 0.5,<14.9,,7.47,"cytotoxicity classification from CC50 ([1]; MRC-5 cells, class in words): moderately cytotoxic"
O=C(/C=C/c1ccco1)/C=C/c1ccco1 [Compound A8],0.121 ± 0.0105,>530.2,,,"CC50 at 72 h [2, 4]: > 64 µM"
COc1cc(/C=C/C(=O)/C=C/c2ccc(O)c(OC)c2)ccc1O [Compound A18],,<2.1,rather cytotoxic,1.06,IC50 (P. falciparum 3D7 strain; [5]): > 0.5 µM
O=C(/C=C/c1c(Cl)cccc1Cl)/C=C/c1c(Cl)cccc1Cl [Compound A12],0.24 ± 0.0204,>266.5,,,"CC50 at 72 h [2, 4]: > 64 µM"
CN(C)c1ccc(/C=C/C(=O)/C=C/c2ccc(F)cn2)cc1 [Compound A5],0.11 ± 0.0203,292.4,rather not cytotoxic,32.2,
O=C(/C=C/c1ccc(F)cc1)/C=C/c1ccc(F)cc1 [Compound A4],0.0706 ± 0.0097,,,,
COc1ccc(/C=C/C(=O)/C=C/c2ccc3ccccc3c2)cc1 [Compound A3],0.0512 ± 0.0107,625,rather not cytotoxic,32,
COc1ccc(O)c(/C=C/C(=O)/C=C/c2cc(OC)ccc2O)c1 [Compound A2],0.0302 ± 0.0063,62.2,,1.88,"cytotoxicity classification from CC50 ([1]; MRC-5 cells, class in words): rather cytotoxic"
"CCN(CC)CCCC(C)Nc1ccnc2cc(Cl)ccc12 (stereo not drawn) [chloroquine, reference compound]",,,,,IC50 (P. falciparum 3D7 strain; [5]): 0.0203 ± 0.0052 µM
O=C1C[C@H](c2ccccn2)[S+]([O-])[C@H](c2ccccn2)C1 (stereo partly drawn) [Compound B5],,33.6,,8.06,"cytotoxicity classification from CC50 ([1]; MRC-5 cells, class in words): moderately cytotoxic; IC50 (P. falciparum 3D7 strain; 3D7 strain, ring-stage synchronized, 44 h incubation, SYBR Green I): 0.24 ± 0.0481 µM"
O=C(/C=C/c1ccccc1Cl)/C=C/c1ccccc1Cl [Compound A11],0.181 ± 0.0296,162.3,,29.4,
O=C1C[C@H](c2ccccn2)S[C@@H](c2ccccn2)C1 [Compound B7],> 0.5,<128,,,"CC50 at 72 h [2, 4]: > 64 µM"
O=C(/C=C/c1ccccc1)/C=C/c1ncccn1 [Compound A14],> 0.5,<3.1,rather cytotoxic,1.56,
Cc1ccc(/C=C/C(=O)/C=C/c2ccc(C)o2)o1 [Compound A16],> 0.5,<10.7,,5.36,"cytotoxicity classification from CC50 ([1]; MRC-5 cells, class in words): rather cytotoxic"
CN(C)c1ccc(/C=C/C(=O)/C=C/c2ccc(N(C)C)cc2)cc1 [Compound A19],> 0.5,<124.5,rather not cytotoxic,62.3,
O=C(/C=C/c1ccccn1)/C=C/c1ccccn1 [Compound A1],0.0301 ± 0.0085,63.4,,1.91,"cytotoxicity classification from CC50 ([1]; MRC-5 cells, class in words): rather cytotoxic"
CN(C)c1ccc(/C=C/C(=O)/C=C/c2nccs2)cc1 [Compound A6],0.111 ± 0.0125,,,> 64,

# More lines, main results first:
IC50 (P. falciparum 3D7 strain; [3]) [µM],Structure (SMILES),SI CC50/IC50 [1],cytotoxicity classification from CC50 [1],CC50 at 72 h [2] [µM],also measured
0.0306 ± 0.0092,COc1cc([C@@H]2CC(=O)C[C@@H](c3cc(OC)c(C)cc3OC)S2)c(OC)cc1C [Compound B2],,,,
> 0.5,O=C1C[C@@H](c2c(Cl)cccc2Cl)S[C@H](c2c(Cl)cccc2Cl)C1 [Compound B8],<128,,> 64,
0.0303 ± 0.0061,COc1cc(Br)c(OC)c([C@@H]2CC(=O)C[C@H](c3cc(OC)cc(Br)c3OC)S2)c1 [Compound B1],>2112.2,,> 64,
> 0.5,CN(C)c1ccc([C@H]2CC(=O)C[C@H](c3ccc(N(C)C)cc3)S2)cc1 [Compound B12],<9.9,moderately cytotoxic,4.96,"observed activity against 3D7 P. falciparum strain (in words) (P. falciparum 3D7 strain; in vitro 3D7 culture, active/inactive): inactive"
0.0604 ± 0.0102,O=C1C[C@@H](c2c(Cl)cccc2Cl)S[C@@H](c2c(Cl)cccc2Cl)C1 [Compound B4],,,,
